# Test results reported in publication PMC9570088, “Phytochemicals with Chemopreventive Activity Obtained from the Thai Medicinal Plant Mammea siamensis (Miq.) T. Anders.: Isolation and Structure Determination of New Prenylcoumarins with Inhibitory Activity against Aromatase” (International Journal of Molecular Sciences, 2022).
# Molecular target: T1, human recombinant aromatase (Homo sapiens, UniProt P11511)
# T1 construct: purchased BD Biosciences (Heidelberg, Germany)
# T1 sequence (P11511 1-503): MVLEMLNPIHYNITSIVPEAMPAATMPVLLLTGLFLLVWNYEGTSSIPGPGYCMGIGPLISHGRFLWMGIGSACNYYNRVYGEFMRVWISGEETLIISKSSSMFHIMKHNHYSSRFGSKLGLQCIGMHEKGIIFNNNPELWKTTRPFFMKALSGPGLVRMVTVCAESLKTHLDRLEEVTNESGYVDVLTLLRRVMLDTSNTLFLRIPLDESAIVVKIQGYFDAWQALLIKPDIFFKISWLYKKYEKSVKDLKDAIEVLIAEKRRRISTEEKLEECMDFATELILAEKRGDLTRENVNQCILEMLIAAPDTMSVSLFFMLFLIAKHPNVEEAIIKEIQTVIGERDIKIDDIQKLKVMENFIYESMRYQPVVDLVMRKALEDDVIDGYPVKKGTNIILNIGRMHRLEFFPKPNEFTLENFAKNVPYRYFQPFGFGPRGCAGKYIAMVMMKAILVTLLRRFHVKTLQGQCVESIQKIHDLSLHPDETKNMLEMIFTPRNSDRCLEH
# Experiment: Inhibitory effects against human recombinant aromatase (DBF fluorescence assay)
# Assay type: biochemical
# Details: substrate DBF; mean, N = 3
# Experimental: Dibenzylfluorescein (DBF) and human CYP19 + P450 reductase SUPERSOMES (human recombinant aromatase) were purchased from BD Biosciences (Heidelberg, Germany) and testosterone from Tokyo Chemical Industry Co., Ltd. (Tokyo, Japan). The other chemicals used in this study were purchased from Wako Pure Chemical Industries, Co., Ltd. (Osaka, Japan).
# The experiments were performed according to a previously described method. Briefly, a test sample was dissolved in dimethyl sulfoxide (DMSO), and the solution was diluted with potassium phosphate buffer (50 mM, pH 7.4) containing MgCl2 (0.5 mM) to obtain the test sample solution (concentration of DMSO: 2%). An enzyme/substrate solution in the buffer (20 µL, 1.6 µM DBF, 8 nM human recombinant aromatase) and the test sample solution (20 µL) were mixed in a 96-well half-area black microplate (Greiner Bio-One, Frickenhausen, Germany) at 37 °C for 10 min. The enzymatic reaction was initiated by adding NADPH solution (40 µL, 500 µM) at 37 °C for 30 min. After 30 min of incubation, NaOH (30 µL, 2 mM) was added, and the reaction mixture was incubated at 37 °C for 2 h to induce fluorescent signals (final DMSO concentration, 0.5%; aromatase, 2 nM; and NADPH, 250 µM). Fluorescence was measured using a fluorescence microplate reader (SH-9000, CORONA […] Co., Ltd., Ibaraki, Japan) at an excitation wavelength of 435 nm and emission wavelength of 535 nm. Experiments were performed in triplicate, and the IC50 values were determined graphically.
row,IC50 [µM],Compound
1,12.4,"CCC(C)C(=O)c1c(O)c2c(c3c([C@@H](O)CC)cc(=O)oc13)OC(C)(CCC=C(C)C)C=C2 (some centres unmarked) [compound 11, Mammeasin F]"
2,9.3,"CCCC(=O)c1c(O)c2c(c3c([C@@H](O)CC)cc(=O)oc13)OC(C)(CCC=C(C)C)C=C2 (some centres unmarked) [compound 23, Kayaessamin I]"
3,23.2,"CCCC(=O)c1c(O)c(CC=C(C)C)c(O)c2c(C(CC)OC(C)=O)cc(=O)oc12 (centres unmarked) [compound 38, Mammea E/BC]"
4,9.2,"CC(C)CC(=O)c1c2c(c3oc(=O)cc(-c4ccccc4)c3c1O)CC(C(C)(C)O)O2 (centres unmarked) [compound 39, Mammea A/AA cyclo F]"

# Molecular target: T1, human recombinant aromatase
# Experiment: Kinetic analysis of inhibitory activity against human recombinant aromatase using Lineweaver-Burk plots (testosterone substrate, estradiol EIA)
# Assay type: biochemical
# Details: testosterone 0.4–4 µM as substrate; secondary plot of Lineweaver–Burk; N = 3
# Text: In the assay system, we fixed the enzyme concentration, changed the substrate concentration, and obtained the kinetic parameters of the enzyme-catalyzed reaction using Lineweaver–Burk double reciprocal plot 1/[V] vs. 1/[S]. The inhibition constant Ki indicates the potency of an inhibitor and equals the concentration required to produce half-maximal inhibition. The Ki value was obtained from the intersection of the secondary plot with the x-axis (apparent Km/Vmax vs. inhibitor).
# Experiments were performed using a previously described protocol, modified by using various concentrations of testosterone (0.4–4 µM) as substrates instead of DBF and the plate was heated at 37 °C for 15 min. After the reaction, the enzyme was inactivated by heating in a boiling water bath for 2 min. An estradiol EIA kit (Oxford Biomedical Research, Inc., Oxford, MI, USA) was used to develop an estradiol standard curve to determine the concentration of estradiol produced and to correlate the concentration of estradiol with the reaction velocity. The mode of inhibition was analyzed using the Lineweaver–Burk plot of the inverse of the reaction velocity of estradiol plotted on the vertical axis and the inverse of the final concentration of the substrate on the horizontal axis, with and without the test substance (Figure S27).
row,Ki [µM],Compound
1,12.3,"CCC(C)C(=O)c1c(O)c2c(c3c([C@@H](O)CC)cc(=O)oc13)OC(C)(CCC=C(C)C)C=C2 (some centres unmarked) [compound 11, Mammeasin F]"
2,14.7,"CCCC(=O)c1c(O)c2c(c3c([C@@H](O)CC)cc(=O)oc13)OC(C)(CCC=C(C)C)C=C2 (some centres unmarked) [compound 23, Kayaessamin I]"
3,11.3,"CCCC(=O)c1c(O)c(CC=C(C)C)c(O)c2c(C(CC)OC(C)=O)cc(=O)oc12 (centres unmarked) [compound 38, Mammea E/BC]"
4,4.3,"CC(C)CC(=O)c1c2c(c3oc(=O)cc(-c4ccccc4)c3c1O)CC(C(C)(C)O)O2 (centres unmarked) [compound 39, Mammea A/AA cyclo F]"
